Results taken from patent US20020094992A1, “Intermittent administration of a growth hormone secretagogue” (priority 2000, published 2002).

What was measured:
[1] = Solubility and osmotic pressure of the active compound; assay type: physicochemical
[2] = test system: male and female subjects between the ages of 65 and 84 years, baseline IGF-1 <150 ng/ml; assay: Clinical study, first leg (immediate release dosage forms): IGF-1, IGFBP-3, body composition; assay type: in vivo, human
Description: (§1) This clinical study was performed in male and female subjects between the ages of 65 and 84 years inclusive, and whose baseline IGF-1 levels were <150 ng/ml.
(§2) The study was a double blind, parallel group, placebo-controlled study.
In the first leg of the study, the safety and efficacy of 2-amino-N-[2-(3a-(R)-benzyl-2-methyl-3-oxo-2,3,3a,4,6,7-hexahydro-pyrazolo[4,3-c]pyridin-5-yl)-1-(R)-benzyloxymethyl-2-oxo-ethyl]-isobutyramide L-tartrate was studied in 4 groups of approximately 24 subjects at doses of 0 mg (placebo), 1 mg tid, 3 mg tid and 3 mg am and 6 mg pm. (All dosage forms in this part of the study were immediate release dosage forms.)
(§3) Return visits were scheduled at 1, 2, and 4 weeks after baseline. A blood sample for 2-amino-N-[2-(3a-(R)-benzyl-2-methyl-3-oxo-2,3,3a,4,6,7-hexahydro-pyrazolo[4,3-c]pyridin-5-yl)-1-(R)-benzyloxymethyl-2-oxo-ethyl]-isobutyramide L-tartrate and IGF-1 levels was obtained at each visit. The baseline and all subsequent follow-up visits were performed at the same time of day (between approximately 8-11 am).
(§4) A follow-up evaluation was made at 1, 2, and 4 weeks. Vital signs were obtained and the skin of the face, trunk and upper extremities was inspected. A blood sample was obtained for measurement of GH and IGF-1, and for measurement of plasma concentrations of 2-amino-N-[2-(3a-(R)-benzyl-2-methyl-3-oxo-2,3,3a,4,6,7-hexahydro-pyrazolo[4,3-c]pyridin-5-yl)-1-(R)-benzyloxymethyl-2-oxo-ethyl]-isobutyramide L-tartrate.
(§5) The primary efficacy endpoint was the percentage change from baseline in IGF-1. Secondary outcomes included insulin-like growth factor binding protein 3 (IGIFBP-3), cholesterol subfractions, and percent changes in total adipose and total lean tissue. Changes in each of the secondary efficacy measures over time were examined systematically either graphically or in tabular form and summarized using appropriate descriptive statistics as is well known in the art.

[3] = test system: male and female subjects between the ages of 65 and 84 years, baseline IGF-1 <150 ng/ml; assay: Clinical study, extension study (CR, CR+IR, daily or every third day): IGF-I, GH peaks, body composition; assay type: in vivo, human
Description: as §1, §2
In addition, an extension study was conducted to evaluate the relationship between peak GH concentrations or IGF-I versus surrogate responses such as lipid concentrations and body composition. A controlled release (CR) formulation was also evaluated, either alone or combined with an immediate release (IR) formulation (24-30 patients per group). [16mg (10 CR, 6 IR) h.s.( h.s. means at bedtime); 16 mg (10 CR, 6 IR) h.s. every third day; 16 mg CR h.s.; and placebo.] The formulations are set forth below.
In the extension study, 2-amino-N-[2-(3a-(R)-benzyl-2-methyl-3-oxo-2,3,3a,4,6,7-hexahydro-pyrazolo[4,3-c]pyridin-5-yl)-1-(R)-benzyloxymethyl-2-oxo-ethyl]-isobutyramide L-tartrate was supplied as 10 mg or 3 mg controlled release tablets and 3 mg immediate release tablets, with matching placebo tablets. Study active compound was supplied in blisterpaks, with five tablets to be taken at time of each dosing. Subjects were instructed to take the tablets with one glass of water at bedtime.
as §3
In addition to this schedule, subjects at selected sites in the extension study were studied during two overnight admissions on the first night of dosing and again on day 28 of dosing. Growth hormone secretion and pharmacokinetic sampling was carried out.
as §4
In addition, subjects at selected study centers were admitted to an overnight unit on day 28 of dosing. Growth hormone secretion profile, pharmacokinetics, and vital sign determination were carried out.
as §5

[4] = two groups receiving IR formulation

## CN1N=C2CCN(C(=O)[C@@H](COCc3ccccc3)NC(=O)C(C)(C)N)C[C@@]2(Cc2ccccc2)C1=O.O=C(O)C(O)C(O)C(=O)O [2-amino-N-[2-(3a-(R)-benzyl-2-methyl-3-oxo-2,3,3a,4,6,7-hexahydro-pyrazolo[4,3-c]pyridin-5-yl)-1-(R)-benzyloxymethyl-2-oxo-ethyl]-isobutyramide L-tartrate]
[1]
  osmotic pressure: about 4 atmospheres
[1]; this GHSEC is a base
  pH dependence of solubility: generally higher at acidic pH
[1]; water
  solubility: > 150 mg/mL
[2]; 0 mg, 1 mg tid, 3 mg tid, 3 mg am and 6 mg pm
  IGF-1 dose relation: dose related increase
[2]; both groups administered 9 mg daily (3 mg tid; 3 mg am and 6 mg pm), immediate release
  increase in IGF-1: approximately 35%
[2]; first leg
  IGFBP3: increased
[2]; first leg, small changes
  changes in body composition: decreased adipose tissue and increased apparent whole body lean mass
[3]; Q 3 day group compared with daily group
  attenuation of GH peaks: less attenuation
[3]; group receiving CR alone, after 4 weeks
  average GH peaks: < 2 ng/mL
[3]; group receiving CR alone, at baseline (first night of dosing)
  average GH peaks: less than 4 ng/ml
[3]; groups receiving 6 mg IR (with 10 mg CR), at baseline
  average GH peaks: ≥ 15 ng/mL
[3]; groups receiving 6 mg IR (with 10 mg CR), by 4 weeks
  average GH peaks: 4 to 6 ng/mL
[3]; on average
  GH peak height, Q 3 day group greater than QD group: 1.52 ng/mL
[3]; remaining group, apparently 16 mg (10 CR, 6 IR) h.s. every third day
  average rise of IGF-I: approximately 10%
[3]; the 2 groups dosed daily (16 mg CR h.s., 16 mg (10 CR, 6 IR) h.s.)
  IGF-I: increases
[3]; [4]
  adipose tissue: corresponding reductions
  increases in lean tissue: 0.5-0.6%
